Source: patent publication US20200165194A1, “ADDITIVE COMPOSITION FOR CULTURE MEDIUM, ADDITIVE COMPOUND FOR CULTURE MEDIUM, AND METHOD FOR CULTURE OF CELLS OR TISSUE USING SAME” (NISSAN CHEMICAL CORPORATION, priority 2017, published 2020)
Where two headings read alike, the source gives them in different places.

Key:
Format in all cases: cell-based
[1] = test system: Human umbilical vein endothelial cells; assay: Vascular endothelial cell, 3D culture, ATP assay (Experimental Example 14); details: for proliferation activity (in words): human umbilical vein endothelial cells under three-dimensional conditions; for viability at 5 µM / viability at 10 µM: Homo sapiens, HUVEC, 96 h, 4 days, no-addition = 100%, read-out: relative value of RLU (number of viable cells)
Experimental: Human umbilical vein endothelial cells (manufactured by PromoCell) were precultured in Endothelial Cell proliferation Medium (manufactured by PromoCell) medium (single layer culture). The above-mentioned cells in the logarithmic growth phase were washed with PBS, DetachKit (manufactured by PromoCell) was added, and adherent cells were detached by incubating at 37° C. for 3 min. The medium was added and the mixture was centrifuged and resuspended in the same medium.
The aforementioned cells were suspended in respective deacylated gellan gum-containing or not containing media (deacylated gellan gum concentration was 0.015 w/v %), and seeded in a 96 well low attachment U-bottom plate (manufactured by Corning, #4520, deacylated gellan gum-free medium), or a low attachment flat bottom plate (manufactured by Corning, #3474, deacylated gellan gum-containing medium) at a cell concentration of 700-2000 cells/90 μL/well (all 3D culture). […] The amount of each compound solution to be added was 10 μL/well. As a control, a DMSO solution dissolved in a medium was added (DMSO final concentration 0.1%).

[2] = test system: Chinese hamster ovary-derived cell line CHO-K1; assay: Animal cell lines, 3D culture, ATP assay (Experimental Example 15); details: 4 days; for viability at 5 µM / viability at 10 µM: Cricetulus griseus, CHO-K1, 96 h
Excerpt: (§1) Various animal cell lines were precultured (single layer culture) as follows in respective media. Chinese hamster ovary-derived cell line CHO-K1 (manufactured by DS PHARMA BIO MEDICAL, 10% fetal bovine serum (FBS, manufactured by Corning)-containing Ham's F-12 medium (manufactured by Fujifilm Wako Pure Chemical Corporation)), Cercopithecus aethiops kidney epithelium-derived cell line Vero (purchased from JCRB cell bank, 5% FBS-containing Medium 199 medium (manufactured by Life Technologies)). The above-mentioned cells in the logarithmic growth phase were washed with PBS, a 0.25 w/v % trypsin-1 mmol/L EDTA (ethylenediaminetetraacetic acid) solution (manufactured by Fujifilm Wako Pure Chemical Corporation) was added, and adherent cells were detached by incubating at 37° C. for 3 min. Each medium was added and the mixture was centrifuged and resuspended in the same medium.
(§2) The aforementioned various animal cells were suspended in respective deacylated gellan gum-containing or not containing media (deacylated gellan gum concentration was 0.02 w/v % in Ham's F-12 medium, 0.015 w/v % in Medium 199 medium), and seeded in a 96 well low attachment U-bottom plate (manufactured by Corning, #4520, deacylated gellan gum-free medium), or a low attachment flat bottom plate (manufactured by Corning, #3474, deacylated gellan gum-containing medium) at a cell concentration of 700-2000 cells/90 μL/well (all 3D culture). […] The amount of each compound solution to be added was […]. As a control, a DMSO solution dissolved in a medium was added (DMSO final concentration 0.1%). […] When compared with the compound non-addition (control), one showing a value of not more than 119% as -, one showing a value of not less than 120% as ◯, and one showing a value of not less than 150% as ⊚ are shown in the twenty-third table and the twenty-fourth table.

[3] = test system: Cercopithecus aethiops kidney epithelium-derived cell line Vero; assay: as above
Excerpt: as §1, §2

[4] = test system: Mouse embryonic fibroblast C3H10T1/2; assay: Fibroblast strain C3H10T1/2, 3D culture, ATP assay (Experimental Example 11); details: for proliferation activity (in words): fibroblast under three-dimensional conditions
Experimental: Mouse embryonic fibroblast C3H10T1/2 (manufactured by DS PHARMA BIO MEDICAL) was cultured in a BME medium (manufactured by Thermo Fisher Scientific) containing 10 (v/v) % FBS (manufactured by Corning) and the L-glutamine-penicillin-streptomycin stabilizing solution (manufactured by Sigma-Aldrich). The above-mentioned cells in the logarithmic growth phase were washed with PBS, a 0.25 w/v % trypsin-1 mmol/L EDTA (ethylenediaminetetraacetic acid) solution (manufactured by Wako Pure Chemical Industries, Ltd.) was added, and the cells were detached by incubating at 37° C. for 3 min. Each medium was added, the mixture was centrifuged, and the supernatant was removed.
The aforementioned various cells were suspended in respective deacylated gellan gum-containing or not containing media (deacylated gellan gum concentration was 0.015 w/v %), and seeded in a 96 well low attachment U-bottom plate (manufactured by Corning, #4520, deacylated gellan gum-free medium) at a cell concentration of 700-2000 cells/90 μL/well (3D culture). […] The amount of each compound solution to be added was 10 μL/well. As a control, a DMSO solution dissolved in a medium was added (DMSO final concentration 0.1%). […] When compared with the compound no-addition (control), one showing a value of not more than 119% as -, one showing a value of not less than 120% as ◯, and one showing a value of not less than 150% as ⊚ are shown in the eighteenth table. Unperformed test is left blank.

hiPS cell line 253G1 = assay: Human pluripotent stem cell (hiPS cell), EZSPHERE plate, ATP assay (Experimental Example 13); details: for relative value (%): hiPS 253G1, EZSPHERE plate, 5 μM, 3 days, RLU of DMSO addition = 100%; for proliferation activity (in words): human pluripotent stem cells under three-dimensional conditions
Experimental: hiPS cell line 253G1 (purchased from RIKEN) was cultured on a dish coated with vitronectin VTN-N (manufactured by Thermo Fisher Scientific) using mTeSR1 (registered trade mark) medium (manufactured by STEMCELL Technologies). The above-mentioned cells in the proliferation phase were washed with PBS (manufactured by Fujifilm Corporation Wako Pure Chemical Industries, Ltd.), TrypLE Select (registered trade mark) (manufactured by Thermo Fisher Scientific) was added and the mixture was incubated at 37° C. for 3 min to remove the detaching solution. The medium was added and the cells were detached by pipetting. Thereafter, the supernatant was removed by centrifugation.
The aforementioned cells were suspended in a medium containing 10 μM Y-27632 (manufactured by Fujifilm Corporation Wako Pure Chemical Industries, Ltd.) and seeded in a 96-well EZSPHERE plate (manufactured by AGC TECHNO GLASS CO., LTD., #4860-900) at a cell concentration of 10000 cells/200 μL/well. […] The amount of each compound solution to be added was 2 μL/well. As a control, a DMSO solution dissolved in a medium was added (DMSO final concentration 0.05%). The medium was exchanged by half the volume every day, and each compound solution was also added to make the compound concentration constant.

[5] = CHO-K1, low attachment U-bottom plate, 5 μM, read-out: number of viable cells (RLU), relative value to control (100%)
[6] = CHO-K1, low attachment U-bottom plate, 10 μM, read-out: number of viable cells (RLU), relative value to control (100%)
[7] = CHO-K1, low attachment flat bottom plate (deacylated gellan gum-containing medium), 5 μM, read-out: number of viable cells (RLU), relative value to control (100%)
[8] = CHO-K1, low attachment flat bottom plate (deacylated gellan gum-containing medium), 10 μM, read-out: number of viable cells (RLU), relative value to control (100%)
[9] = low attachment U-bottom plate, 5 μM, 4 days
[10] = low attachment U-bottom plate, 10 μM, 4 days
[11] = low attachment flat bottom plate (deacylated gellan gum-containing medium), 5 μM, 4 days
[12] = low attachment flat bottom plate (deacylated gellan gum-containing medium), 10 μM, 4 days
[13] = C3H10T1/2, low attachment U-bottom plate, 1 μM, 4 days
[14] = CHO-K1, low attachment flat bottom plate (deacylated gellan gum-containing medium), 5 μM
[15] = CHO-K1, low attachment flat bottom plate (deacylated gellan gum-containing medium), 10 μM
[16] = Mus musculus, C3H 10T1/2, 96 h, C3H10T1/2, low attachment U-bottom plate, 1 μM, 4 days, read-out: number of viable cells (RLU), relative value to control (100%)
[17] = low attachment flat bottom plate (deacylated gellan gum-containing medium)

Compound	proliferation activity (in words) [1]	viability at 5 µM [2, 5] [%]	viability at 10 µM [2, 6] [%]	viability at 5 µM [2, 7] [%]	viability at 10 µM [2, 8] [%]	number of viable cells (RLU), relative value to control (100%) [3, 9]	number of viable cells (RLU), relative value to control (100%) [3, 10]	number of viable cells (RLU), relative value to control (100%) [3, 11]	number of viable cells (RLU), relative value to control (100%) [3, 12]	number of viable cells (RLU), relative value to control (100%) [4, 13]	proliferation activity (in words) [4]	relative value (%) (hiPS cell line 253G1)	proliferation activity (in words) (hiPS cell line 253G1)	number of viable cells (RLU), relative value to control (100%) [2, 14]	number of viable cells (RLU), relative value to control (100%) [2, 15]	viability at 1 µM [4, 16] [%]	also measured
CC/C(=N\NC(=O)C(C)Nc1ccccc1)c1ccc(O)c(C)c1O (stereo not shown) [k-1:B-1]	promoted proliferation activity in human umbilical vein endothelial cells	< 119	< 119	120 to 150	< 119	⊙	⊙	⊙	⊙	⊙	promoted proliferation activity in fibroblast	193	promoted proliferation activity in human pluripotent stem cells				number of viable cells (RLU), relative value to control (100%) ([4]; C3H10T1/2, low attachment U-bottom plate, 5 μM, 4 days): ⊙
CC/C(=N\NC(=O)CNc1cccc(O)c1)c1ccc(O)c(C)c1O [k-1:D-1]	promoted proliferation activity in human umbilical vein endothelial cells	< 119	< 119			⊙	⊙	⊙	⊙		promoted proliferation activity in fibroblast	207	promoted proliferation activity in human pluripotent stem cells	⊙	⊙	> 120	
CCC(=NNC(=O)C(CC)Nc1ccccc1)c1ccc(O)c(C)c1O (stereo not shown) [k-1:H-7]	promoted proliferation activity in human umbilical vein endothelial cells					⊙	⊙	⊙	⊙			194	promoted proliferation activity in human pluripotent stem cells	◯ (one showing a value of not less than 120% as ◯)			
CC/C(=N\NC(=O)NCc1ccccc1)c1ccc(O)c(C)c1O [k-1:I-1]	promoted proliferation activity in human umbilical vein endothelial cells	< 119	< 119	< 119	< 119		⊙				promoted proliferation activity in fibroblast					> 120	viability at 5 µM ([1]; low attachment U-bottom plate): 327%; viability at 10 µM ([1]; low attachment U-bottom plate): 304%; viability at 5 µM [1, 17]: 209%; viability at 10 µM [1, 17]: 268%; viability at 5 µM ([3]; Chlorocebus sabaeus, 96 h, low attachment U-bottom plate, 5 μM, 4 days, read-out: number of viable cells (RLU), relative value to control (100%)): > 120%; viability at 5 µM ([3]; Chlorocebus sabaeus, 96 h, low attachment flat bottom plate (deacylated gellan gum-containing medium), 5 μM, 4 days, read-out: number of viable cells (RLU), relative value to control (100%)): < 119%; viability at 10 µM ([3]; Chlorocebus sabaeus, 96 h, low attachment flat bottom plate (deacylated gellan gum-containing medium), 10 μM, 4 days, read-out: number of viable cells (RLU), relative value to control (100%)): < 119%; viability at 5 µM ([4]; Mus musculus, C3H 10T1/2, 96 h, C3H10T1/2, low attachment U-bottom plate, 5 μM, 4 days, read-out: number of viable cells (RLU), relative value to control (100%)): > 120%
CC/C(=N\NC(=O)NCc1cccc(O)c1)c1ccc(O)c(C)c1O [k-1:J-1]	promoted proliferation activity in human umbilical vein endothelial cells					⊙	⊙		⊙	⊙	promoted proliferation activity in fibroblast	227	promoted proliferation activity in human pluripotent stem cells		⊙		viability at 5 µM ([2]; read-out: number of viable cells (RLU), relative value to control (100%), CHO-K1, low attachment U-bottom plate, 5 μM): < 119%; viability at 10 µM ([2]; read-out: number of viable cells (RLU), relative value to control (100%), CHO-K1, low attachment U-bottom plate, 10 μM): < 119%; viability at 5 µM ([2]; read-out: number of viable cells (RLU), relative value to control (100%), CHO-K1, low attachment flat bottom plate (deacylated gellan gum-containing medium), 5 μM): 120 to 150%; viability at 5 µM ([3]; Chlorocebus sabaeus, 96 h, read-out: number of viable cells (RLU), relative value to control (100%)): 120 to 150%
